Test results as given in ChEMBL document CHEMBL1131163 (J Med Chem, 1998).

Molecular target: D(2) dopamine receptor (Rattus norvegicus) (UniProt P61169)
Sequence (P61169 whole entry, looked up): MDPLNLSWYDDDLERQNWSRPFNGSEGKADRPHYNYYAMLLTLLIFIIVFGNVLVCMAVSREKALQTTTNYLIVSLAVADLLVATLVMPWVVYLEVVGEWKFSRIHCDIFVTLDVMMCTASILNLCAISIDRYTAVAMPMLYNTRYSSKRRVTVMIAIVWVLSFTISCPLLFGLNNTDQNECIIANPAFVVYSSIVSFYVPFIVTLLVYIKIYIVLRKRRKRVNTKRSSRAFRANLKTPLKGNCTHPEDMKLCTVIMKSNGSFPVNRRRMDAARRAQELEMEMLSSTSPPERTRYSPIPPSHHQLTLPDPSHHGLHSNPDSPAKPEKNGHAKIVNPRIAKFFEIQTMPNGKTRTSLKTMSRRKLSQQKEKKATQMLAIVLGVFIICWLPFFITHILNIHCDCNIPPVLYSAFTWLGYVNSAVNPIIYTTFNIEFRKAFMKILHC

## CN1C[C@H](C(N)=O)C=C2c3cccc4[nH]c(Br)c(c34)C[C@H]21
  Ki: 2 nM
